| Structure (SMILES) | melting point [°C] |
| --- | --- |
| Cc1ccc2c(c1)OC(C)(c1ccc(C)cc1OC(=O)[C@]13CC[C@](C)(C(=O)O1)C3(C)C)CC2(C)C (some centres undefined) | 136 |
| O=C(NCCc1ncc(C(F)(F)F)cc1Cl)c1ccccc1C(F)(F)F | 118 |
| Cc1nc2ccccc2[nH]c(=O)c1=NNc1ccc(Cl)cc1 | 175 |
| O=[N+]([O-])c1cc([N+](=O)[O-])c(/C=C/c2cccc3c2OCO3)cc1/C=C/c1cccc2c1OCO2 | 215 |
| O=C(O)[C@@H]1Cc2ccccc2CN1C(=O)OCC1c2ccccc2-c2ccccc21 | 146 to 149 |
| Cn1cc(Br)c(C=O)n1 | 71 to 72 |
| COc1ccc2c3c1OC1C(O)CCC4C(C2)N(C)CCC341 (centres undefined) | 200 |
| CCCCCCCC[C@@H](O)CO | 60 to 62 |
| O=C1/C(=C/c2ccccc2)SC(=S)N1CN1CCOCC1 | 121 |
| Cc1ccccc1CC(NC(=O)OC(C)(C)C)C(=O)O (racemic) | 125 to 129 |
| O=Cc1c(-c2ccccc2)nn(-c2ccccc2)c1Cl | 109 to 110 |
| COC(=O)C1(S(=O)(=O)c2ccc(C)cc2)CC1 | 97.2 |
| O=C(CI)NCCNc1cccc2c(S(=O)(=O)O)cccc12 | 300 |
| Cn1cc(CCC(=O)O)c(=O)n(C)c1=O | 225 |
| Clc1ccc(Cc2ccc(Cl)cc2)cc1 | 55.5 |
| NNC(=O)c1ccc[nH]1 | 232 to 235 |
| COc1ccc(-c2csc(/C(C#N)=N\Nc3cc(C)ccc3C)n2)cc1 | 155 |
| CC1=C(C(=O)OCc2ccccc2)C(c2ccc(O)c(O)c2)NC(=O)N1 (centres undefined) | 214 to 216 |
| O=C(O)c1cc([N+](=O)[O-])cc([N+](=O)[O-])c1Cl | 199 |
| O=C(O)C=CC(=O)Nc1cccc(Cl)c1 | 198 |
| CN(C)c1ccc(C=C2C(=O)NC(=O)NC2=O)cc1 | 245 |
| O=C1CCCC2=C1[C@@H](c1cccc([N+](=O)[O-])c1)[C@@H]1C(=O)CCC[C@@]1(O)O2 | 219 |
| CC(C)(CCC(=O)O)C(=O)O | 84 |
| Nc1cc2ccccc2oc1=O | 136 |
| CC1CC2(C)C(CCC3C4CCC(O)C4(C)CCC32)CC1=O (centres undefined) | 151 |

| Structure (SMILES) | melting point [°C] |
| --- | --- |
| Cc1cc2ccccc2nc1C | 68.5 |
| CC(C)(C)OC(=O)N=NC(=O)OC(C)(C)C | 90 to 92 |
| Clc1ncccc1-c1cccc(Br)n1 | 140 |
| NS(=O)(=O)c1c(F)cccc1F | 190 |
| O=P(O)(O)CCN(CP(c1ccccc1)c1ccccc1)CP(c1ccccc1)c1ccccc1 | 146 to 148 |
| O=C1NC(=O)C(=Cc2ccccc2)N1 | 222 |
| COc1c(F)cc(F)cc1C#N | 35 |
| Cc1n[nH]c(C)c1/C=C/c1ccccc1 | 184 |
| CCOC(CN1C(=O)c2ccccc2C1=O)OCC | 72 to 74 |
| CN1CCN(C2=Nc3ccccc3Sc3ccc(Cl)cc32)CC1 | 119 |
| O=C=Nc1ccc(CCl)cc1 | 33 |
| O=C(O)COc1ccc(OC(F)(F)F)cc1 | 84 to 86 |
| NC(=O)CC[C@H](NC(=O)C(F)(F)F)C(=O)O | 146 to 150 |
| CC(=S)Nc1ccccc1 | 77.5 |
| COc1ccc(C#N)cn1 | 94 to 95 |
| Nc1c(CN2CCCC2)c(=O)oc2ccccc12 | 197 |
| CCCCc1c(C)nc(NCC)nc1O | 160 |
| CC(=O)Nc1ccsc1C(=O)O | 200 to 202 |
| ICCCCCCCCI | 16 to 21 |
| Oc1ccc(C2(c3ccc(O)cc3)CC3CC2C2CCCC32)cc1 (centres undefined) | 219 to 221 |
| Nc1ccc2c(n1)[nH]c1ccccc12 | 202 |
| NC(=S)Nc1ccc(Cl)c(Cl)c1 | 210 to 213 |
| C=C(NC(C)=O)C(=O)CCC(N)=O | 130 |
| c1ccc(-c2ccc3ccccc3c2)cc1 | 104 |

— a melting point compilation (Tetko et al.)
